Values quoted from earlier work in PMC8198792, “Prediction of Anticancer Peptides with High Efficacy and Low Toxicity by Hybrid Model Based on 3D Structure of Peptides” (International Journal of Molecular Sciences, 2021).
Where two headings read alike, the source gives them in different places.

Tested on: cancer cell lines
Design: method as in 6 sources, ref CancerPPD [45] and SATPdb ||| ref CancerPPD/SATPdb ||| ref CancerPPD, SATPdb, Swissprot (PDB) ||| ref CancerPPD/SATPdb/Swissprot(PDB) ||| ref CancerPPD / SATPdb ||| ...
Details: cited from earlier work
Text: Supplement ijms-22-05630-s001.zip/ACPs(seguence).xlsx, sheet "D1" | column: Activity || Supplement ijms-22-05630-s001.zip/ACPs(seguence).xlsx, sheet "D2" | column: Activity || Supplement ijms-22-05630-s001.zip/ACPs(seguence).xlsx, sheet "D3" | column: Activity || (+ 2 further places)

[1] = ACPs dataset D3 (supplement sheet "D3"), 1 = ACP, 0 = non-ACP, ref CancerPPD [45] and SATPdb
[2] = ACPs dataset D4 (sheet "D4"), label 1 = ACP (CancerPPD ID), 0 = non-ACP (non-anticancer AMP, SATPdb ID), ref CancerPPD [45] and SATPdb
[3] = ACPs dataset D5 (sheet "D5"), label 1 = ACP (positive set), 0 = non-ACP (negative set), ref CancerPPD [45] and SATPdb
[4] = ACPs dataset D2 (supplement ACPs(seguence).xlsx, sheet D2), dataset label 1/0 (ACP / non-ACP), entries identified by Swissprot(PDB ID), ref CancerPPD/SATPdb/Swissprot(PDB)
[5] = ACPs dataset D5, sheet "D5", label 1 = ACP, 0 = non-ACP, ref CancerPPD [45] and SATPdb
[6] = ACPs dataset D1, 1 = ACP (positive), 0 = non-ACP (negative), label taken from databases, ref CancerPPD [45] and SATPdb
[7] = ACPs dataset D4 (sheet "D4"), label 1 = ACP, experimentally validated ACPs, ref CancerPPD [45] and SATPdb
[8] = ACPs dataset D5 (sheet "D5"), label 1 = ACP (positive set), sequences with CancerPPD/SATPdb ID, ref CancerPPD, SATPdb
[9] = ACPs dataset D3 (sheet "D3"), label 1 = ACP, 0 = non-ACP, ref CancerPPD/SATPdb
[10] = ACPs dataset D4 (sheet "D4"), label 1 = ACP, 0 = non-ACP, ref CancerPPD / SATPdb
[11] = ACPs dataset sheet D2, 1 = ACP (CancerPPD/SATPdb ID), 0 = non-ACP (Swissprot/PDB ID), ref CancerPPD, SATPdb, Swissprot (PDB)
[12] = ACPs dataset D1, label 1 = ACP, 0 = non-ACP (non-anticancer AMPs from SATPdb), ref CancerPPD/SATPdb

Sequence | Activity [1] | Activity [2] | Activity [3] | Activity [6] | Activity [7] | Activity [8] | other results
GLFDIVKKIAGHIVSSI [compound 1297] | 1 | 1 | 1 | – | – | – | –
MDKVQYLTRSAIRRASTIEMPQQARQNLQNLFINFCLILICLLLICIIVMLL [4KYT X-ray 2.83 B/C 1-52] | – | – | – | – | – | – | Activity [4]: 0; Activity [5]: 0
FLPIIASVAANVFSKIFCAISKKC [satpdb10458] | – | 0 | – | 0 | – | – | –
ITIPPIVKNTLKKFIKGAVSALMS [satpdb11263] | – | 0 | – | 0 | – | – | –
FLGMIPKLIKKLIKAFK [compound 3135] | 1 | – | – | – | 1 | 1 | –
LKLGTLVNLAKKIL [satpdb13705] | – | – | – | – | – | – | Activity [9]: 0; Activity [10]: 0; Activity [5]: 0
NKWKKILGKIIKVVK [compound 3497] | 1 | 1 | 1 | – | – | – | –
GIIKKIIKKIIKKI [compound 2840] | 1 | 1 | 1 | – | – | – | –
RGGRLCYCRRRFCVCVGR [compound 4251] | 1 | 1 | 1 | – | – | – | –
KCGHKHQCAVHN [satpdb17767] | – | – | – | 1 | 1 | 1 | Activity [11]: 1
SVSNAATRVARTGRSRWRDVARNFMR [satpdb11117] | – | 0 | – | 0 | – | – | –
GLPTCGETCTLGTCYVPDCSCSWPICMKN [compound 4381] | – | – | – | 1 | 1 | 1 | Activity [11]: 1
GKWSKILGKLIR [compound 3644] | 1 | 1 | 1 | – | – | – | –
GRRKRKWLRRIGKGVKIIGGAALDHL [compound 4351] | 1 | 1 | 1 | – | – | – | –
GPWAPCSASCGGGSQSRS [satpdb28727] | – | – | – | 1 | 1 | 1 | Activity [11]: 1
ALWKTMLKKLGTMALHAGKAALGAAADTISQGTQ [compound 1708] | – | – | – | 1 | 1 | 1 | Activity [11]: 1
YNRLCIKPRDWIDECDSNEGGERAYFRNGKGGCDSFWICPEDHTGADYYSSYRDCFNACI [1D0D X-ray 1.62,A,1-60] | – | – | – | – | – | – | Activity [4]: 0; Activity [5]: 0
MVEPLLDGLVLGLVFATLGGLFYAAYQQYKRPNELGG [4I7Z X-ray 2.80 G 1-37] | – | – | 0 | – | – | – | Activity [4]: 0
TFRAFLSSRLQDLYSIVRRADRAAV [compound 4202] | – | – | – | 1 | 1 | 1 | Activity [11]: 1
GLPVCGETCFGGTCNTPGCTCDPWPVCTRN [compound 4427] | – | – | – | 1 | 1 | 1 | Activity [11]: 1
KVNANAIKKGGKAIGKGFKVISAASTAHDVYEHIKNRRH [satpdb12894] | – | – | – | – | – | – | Activity [12]: 0; Activity [10]: 0
PAWRKARRWARRMKKLAA [compound 1618] | – | – | – | 1 | 1 | 1 | Activity [11]: 1
PIEVNDDCMACEACVEICPDVFEMNEEGDKAVVINPDSDLDCVEEAIDSCPAEAIVRS [1F2G;1FXD X-ray 1.70 A 1-58] | – | – | – | – | – | – | Activity [4]: 0; Activity [5]: 0
FFGTALKIAANVLPTAICKILKKC [satpdb13355] | – | – | – | – | – | – | Activity [12]: 0; Activity [10]: 0
LGGIVSAVKKIVDFLG [compound 1903] | 1 | 1 | 1 | – | – | – | –
KNWKAILKHIIK [satpdb13480] | – | – | – | – | – | – | Activity [9]: 0; Activity [10]: 0; Activity [5]: 0
